The source of these data is patent US8530404B2, “Compounds and methods for treatment of cancer” (FibroGen, Inc., priority 2005, dated 2013).

Where two headings read alike, the source gives them in different places.

The test system of assay [1] is BNIP3L gene expression. Description: In vivo BNIP3L gene expression in Swiss Webster mice (quantitative PCR). The following applies: Mus musculus, iv, 4 h, single 60 mg/kg i.v. dose, four hours after administration, normalized to 18S. How it is done:
The effects of various compounds of the present invention on the expression of genes associated with tumor growth and progression (e.g., expression of genes associated with anti-proliferative effects) were examined in vivo as follows. In these studies, male Swiss Webster mice (25 g) were administered a single intravenous (i.v.) dose of various compounds (60 mg/kg) of the present invention via the tail vein. Four hours after administration of compound, the kidneys and liver were removed and preserved in RNAlater (Ambion). RNA isolation and cDNA synthesis was carried out as follows. Murine kidney tissue was added to TRIzol (Invitrogen) and homogenized using a 5-mm stainless steel bead for 4 minutes at 25 Hz in a Mixer Mill 300 (Qiagen). Homogenates were extracted with chloroform according to the manufacturer's instructions and aqueous supernatants were isolated. The aqueous supernatants were combined with equal volumes of 70% ethanol and then loaded onto RNeasy Mini spin columns (Qiagen). RNA was isolated according to the manufacturer's instructions.
Synthesis of cDNA from the isolated total RNA was carried out using Omniscript reverse transcriptase (Qiagen) and random primers according to the manufacturer's instructions. Measurement of gene expression levels in compound-treated animals and in vehicle-treated control animals was performed by quantitative PCR using TaqMan Universal PCR Master Mix (Applied Biosystems) and TaqMan Assay-on-Demand assays (Applied Biosystems) in a Prism 7000 system instrument (Applied Biosystems), according to manufacturer's instructions. The assays used were as follows: 18S ribosomal RNA, Hs99999901_s1; BNIP3, Mm00833810_g1; BNIP3L, Mm00786306_s1; NDRG1, Mm00440447_m1. Each PCR amplification reaction included a standard curve and a water blank. Data for gene expression levels for BNIP3, BNIP3L, and NDRG1 were normalized to that of 18S ribosomal RNA within each sample. Data is presented as fold change in specific mRNA levels relative to that of non-treated control animals.

For assay [2], the system named is OVCAR3 ovarian tumors. Description: Subcutaneous OVCAR3 ovarian tumor xenograft in SCID mice (Example 7). The following applies: 60 mg/kg; study end (day 29); FIG. 2. The assay is classed as in vivo, mouse. How it is done: The experiment was conducted essentially as described above in Example 3, except that the tumors of GFP-transfected H460 cells were replaced with OVCAR3 ovarian tumors. […] FIG. 2 is a Kruskal-Wallis box plot. The central bar within each box indicates the median value for the group, the limits of the various boxes and whiskers indicate group quartiles within the total distribution of values determined in this study.

Assay [3] in a line: Complete blood counts and reticulocyte analysis in H-460 xenograft mice (Example 1). The assay is classed as in vivo, mouse. The settings on record: study end. How it is done:
Sizes of the primary tumors were measured through the skin with calipers once per week. Tumor volumes were calculated by the formula V═(W^2*L)/2. Body weight of the mice in each group was also measured once per week during the experimental period. All animals were sacrificed following thirty-two days of treatment. Primary tumors were excised and weighed on an electronic balance. Blood samples were taken during terminal sacrifice and placed in microhematocrit tubes containing EDTA. Complete Blood Counts (CBC) and reticulocyte analysis were performed with the Cell Dyn 3700 analyzer (Abbott Diagnostics), as described by the manufacturer.

The test system of assay [4] is H460 tumor cells. As to the kind of experiment: Subcutaneous H460 lung tumor xenograft, tumor growth delay study in combination with chemotherapeutics (Example 6). The assay is classed as in vivo, mouse. The settings on record: Cmpd A 60 mg/kg p.o., paclitaxel 15 mg/kg i.v., carboplatin 120 mg/kg i.p. How it is done:
This study was used to determine the effect of combined treatments where compounds and methods of the invention were combined with conventional anti-tumor therapies. These experiments were performed essentially as described above in Example 3, except that 1×10^7 H460 tumor cells were implanted subcutaneously to the flanks of female Harlan nude animals. The number of animals in each group was 10. Treatments were initiated when tumors reached an average size of approximately 100 mm^3.
The study design was representative of tumor progression studies of the TGD (Tumor Growth Delay) type, using a protocol that required individual animals to be humanely euthanized after reaching a set endpoint of tumor volume greater than or equal to 2 cc.
These two chemotherapeutic agents are of two broad classes of conventional anti-tumor therapeutics: microtubule poisons (paclitaxcel); and DNA-directed agents, including the sub-classification of DNA alkylating agents (carboplatin). In tumor-bearing human patients, conventional anti-tumor therapy commonly use of one or both classes of chemotherapeutic agents.
The study was initiated with administration of conventional anti-tumor treatment or vehicle control, and followed one day after with administration of Compound A or vehicle control. […] (See Table 11 and Table 12 for compound and chemotherapeutic agent dosing schedule.)
Tumor progression was determined for each treatment group and is presented as median Time-to-Endpoint (TTE).

Where [5] appears, read: read-out: fold change in BNIP3L mRNA level, kidney.
Setting [6] is: read-out: fold change in BNIP3L mRNA level, liver.

For `Cc1nc(C(=O)NCC(=O)O)c(O)c2ccc(Oc3ccccc3)cc12` [Compound D, [(4-Hydroxy-1-methyl-7-phenoxy-isoquinoline-3-carbonyl)-amino]-acetic acid], the fold induction at 60 mg/kg in assay [1] (setting [5]) stood at 5; in assay [1] (setting [6]), 1.2. For the same compound, the “reduction of median tumor volume compared to vehicle-treated control” value in assay [2] is 5%.

`COc1ccc(Oc2ccc3c(O)c(C(=O)NCC(=O)O)ncc3c2)cc1` [Compound C, {[4-Hydroxy-7-(4-methoxy-phenoxy)-isoquinoline-3-carbonyl]-amino}-acetic acid]: the fold induction at 60 mg/kg in assay [1] (setting [5]) came out at 0.9. For the same compound, the fold induction at 60 mg/kg in assay [1] (setting [6]) turned out to be 2.6. Also, in assay [3] (20 mg/kg PO), the “Abs Retic (reticulocyte count)” value is given as 457, the Baso % was 1.47%, the “Baso (basophils)” value came to 150 µL⁻¹ and the EOS % came to 0.47%. For the same compound, in assay [3] (20 mg/kg PO), the “Eos (eosinophil count)” value was 40 µL⁻¹, the “HCT (hematocrit)” value is 41.1%, the “HGB (hemoglobin)” value was 14.0 g/dL and the “IRF (immature RET fraction)” value worked out at 0.56. In assay [3] (20 mg/kg PO), the Lymph % turned out to be 25.2%, the “Lymph (lymphocytes)” value turned out to be 3000 µL⁻¹, the “MCH (mean corpuscular hemoglobin)” value amounted to 14.9 pg and the “MCHC (MCH concentration)” value was found to be 34.1 g/dL. Further, in assay [3] (20 mg/kg PO), the “MCV (mean corpuscular volume)” value stood at 43.8 fL, the Mono % is on record as 2.67%, the “Mono (monocytes)” value was 320 µL⁻¹ and the Neut % is listed as 70.2%. Besides, in assay [3] (20 mg/kg PO), the “Neut (neutrophils)” value worked out at 11400 µL⁻¹, the “PLAT (platelets)” value amounted to 1.707e+06 µL⁻¹, the “RBC (red blood cells)” value worked out at 9.36e+06 µL⁻¹ and the “RDW (RBC distribution width)” value came to 22.3%. Further, in assay [3] (20 mg/kg PO), the “RET (reticulocytes)” value turned out to be 4.9% and the “WBC (white blood cells)” value was determined as 14900 µL⁻¹.

For the compound `O=C(O)CNC(=O)c1nc(Cl)c2ccccc2c1O` [Compound A, [(1-Chloro-4-hydroxy-isoquinoline-3-carbonyl)-amino]-acetic acid], in assay [4], the “% TGD, Percent Tumor Growth Delay (vs. Group control)” value turned out to be 9% and the “T-C (Test-control, difference of medians)” value came out at 1.5 days. The “% TGD, Percent Tumor Growth Delay (vs. Group control)” value in assay [4] (listed as Cmpd. A) is given as 9%. For the same compound, the “Median TTE (Time-to-Endpoint, tumor volume >= 2 cc)” value in assay [4] (vehicle group 16.2) was 17.7 days. In addition, the “reduction of median tumor volume compared to vehicle-treated control” value in assay [2] came to 26%.

Consider `C[C@H](NC(=O)c1ncc2cc(Oc3ccccc3)ccc2c1O)C(=O)O` [Compound B, (S)-2-[(4-Hydroxy-7-phenoxy-isoquinoline-3-carbonyl)-amino]-propionic acid], for which the fold induction at 60 mg/kg in assay [1] (setting [5]) stood at 1.2. Besides, in assay [3] (6 mg/kg PO), the “Abs Retic (reticulocyte count)” value was 653, the Baso % is on record as 6.35%, the “Baso (basophils)” value came to 1840 µL⁻¹ and the EOS % is reported as 0.49%. In addition, in assay [3] (6 mg/kg PO), the “Eos (eosinophil count)” value was 80 µL⁻¹, the “HCT (hematocrit)” value is 37.7%, the “HGB (hemoglobin)” value came to 12.7 g/dL and the “IRF (immature RET fraction)” value worked out at 0.64. Also, in assay [3] (6 mg/kg PO), the Lymph % is reported as 18.3%, the “Lymph (lymphocytes)” value is 4700 µL⁻¹, the “MCH (mean corpuscular hemoglobin)” value is recorded as 14.6 pg and the “MCHC (MCH concentration)” value came to 33.8 g/dL. Besides, in assay [3] (6 mg/kg PO), the “MCV (mean corpuscular volume)” value is 43.2 fL, the Mono % was 7.61%, the “Mono (monocytes)” value amounted to 2370 µL⁻¹ and the Neut % is on record as 67.5%. In assay [3] (6 mg/kg PO), the “Neut (neutrophils)” value was determined as 18400 µL⁻¹, the “PLAT (platelets)” value worked out at 1.536e+06 µL⁻¹, the “RBC (red blood cells)” value was found to be 8.71e+06 µL⁻¹ and the “RDW (RBC distribution width)” value is on record as 21.4%. In addition, in assay [3] (6 mg/kg PO), the “RET (reticulocytes)” value is on record as 7.5% and the “WBC (white blood cells)” value turned out to be 27300 µL⁻¹. In addition, in assay [3] (20 mg/kg PO), the “Abs Retic (reticulocyte count)” value came out at 552, the Baso % is reported as 4.52%, the “Baso (basophils)” value is 780 µL⁻¹ and the EOS % came out at 0.44%. Also, in assay [3] (20 mg/kg PO), the “Eos (eosinophil count)” value is 70 µL⁻¹, the “HCT (hematocrit)” value came to 37.7%, the “HGB (hemoglobin)” value is 12.7 g/dL and the “IRF (immature RET fraction)” value was found to be 0.56. In assay [3] (20 mg/kg PO), the Lymph % was found to be 14.6%, the “Lymph (lymphocytes)” value came to 2700 µL⁻¹, the “MCH (mean corpuscular hemoglobin)” value is on record as 14.5 pg and the “MCHC (MCH concentration)” value is 33.7 g/dL. Besides, in assay [3] (20 mg/kg PO), the “MCV (mean corpuscular volume)” value was determined as 43.0 fL, the Mono % worked out at 4.88%, the “Mono (monocytes)” value stood at 850 µL⁻¹ and the Neut % amounted to 75.6%. In assay [3] (20 mg/kg PO), the “Neut (neutrophils)” value amounted to 16500 µL⁻¹, the “PLAT (platelets)” value was 1.767e+06 µL⁻¹, the “RBC (red blood cells)” value came to 8.78e+06 µL⁻¹ and the “RDW (RBC distribution width)” value was found to be 21.7%. In addition, in assay [3] (20 mg/kg PO), the “RET (reticulocytes)” value is 6.3% and the “WBC (white blood cells)” value was 20800 µL⁻¹.

For `O=C(O)CNC(=O)c1ncc2cc(Oc3ccc(F)cc3)ccc2c1O` [Compound E, {[7-(4-fluoro-phenoxy)-4-hydroxy-isoquinoline-3-carbonyl]-amino}-acetic acid], the fold induction at 60 mg/kg in assay [1] (setting [5]) is 0.8; in assay [1] (setting [6]), 1.7.
